Entries after “also recorded” stand apart in the source; their conditions may differ.
How the values were obtained:
ITK [1] = target: T1, ITK (Homo sapiens, UniProt Q08881); assay: Dialysis assay; assay type: biochemical; settings: 24 h dialysis
T1 sequence (Q08881 1-620): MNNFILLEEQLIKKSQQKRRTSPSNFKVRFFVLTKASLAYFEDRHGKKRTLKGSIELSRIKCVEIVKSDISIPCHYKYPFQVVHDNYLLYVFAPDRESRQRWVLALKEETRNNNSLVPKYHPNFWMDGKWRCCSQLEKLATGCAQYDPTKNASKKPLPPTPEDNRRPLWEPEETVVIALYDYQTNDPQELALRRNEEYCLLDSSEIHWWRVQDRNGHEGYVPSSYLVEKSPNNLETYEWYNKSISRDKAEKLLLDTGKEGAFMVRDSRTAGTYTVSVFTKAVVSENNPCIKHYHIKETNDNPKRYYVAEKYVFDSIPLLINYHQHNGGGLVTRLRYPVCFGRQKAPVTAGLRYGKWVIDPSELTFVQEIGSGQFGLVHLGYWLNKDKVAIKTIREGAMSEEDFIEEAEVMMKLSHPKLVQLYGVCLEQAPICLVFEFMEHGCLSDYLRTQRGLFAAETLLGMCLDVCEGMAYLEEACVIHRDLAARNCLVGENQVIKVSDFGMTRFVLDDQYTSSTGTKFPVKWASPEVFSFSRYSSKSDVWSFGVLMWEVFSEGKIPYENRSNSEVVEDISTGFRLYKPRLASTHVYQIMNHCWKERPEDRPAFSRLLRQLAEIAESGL
Method: Dialysis was performed at room temperature against the same buffer for 24 hours in a Slide-A-Lyzer dialysis device (10 kDa MWCO) with three changes of the dialysis buffer giving a nominal final dialysis factor of 8×10^6. Un-dialyzed control samples incubated in parallel for 24 hours. ITK activity was measured following dialysis in a continuous sampling format using the microfluidic assay and 300 μM ATP and 2 μM Scrtide peptide substrate. The enzymatic velocity of treated samples was normalized to the appropriate control rate and expressed as a percent.

Fyn = Fyn (Homo sapiens, UniProt P06241); assay: Human kinome profiling at 1.0 μM, Fyn; assay type: biochemical; settings: read-out: percent control, Fyn
Chain of Fyn (P06241 whole entry): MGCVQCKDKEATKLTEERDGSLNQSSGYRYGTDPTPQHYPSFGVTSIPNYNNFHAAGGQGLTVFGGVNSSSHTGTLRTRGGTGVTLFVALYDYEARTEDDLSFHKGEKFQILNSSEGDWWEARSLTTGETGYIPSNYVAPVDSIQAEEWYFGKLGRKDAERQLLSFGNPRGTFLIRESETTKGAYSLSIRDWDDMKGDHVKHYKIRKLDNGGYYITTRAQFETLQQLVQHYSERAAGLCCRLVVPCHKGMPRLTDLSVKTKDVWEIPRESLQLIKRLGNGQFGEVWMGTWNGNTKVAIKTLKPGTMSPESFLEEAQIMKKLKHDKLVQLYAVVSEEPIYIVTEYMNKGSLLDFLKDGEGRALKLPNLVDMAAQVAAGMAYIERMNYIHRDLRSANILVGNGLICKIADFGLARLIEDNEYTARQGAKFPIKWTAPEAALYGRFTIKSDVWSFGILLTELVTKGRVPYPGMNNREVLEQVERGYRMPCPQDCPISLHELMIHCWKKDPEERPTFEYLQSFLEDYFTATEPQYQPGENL

ERK phosphorylation = assay: pERK flow cytometry after CD3/28 crosslinking; assay type: cell-based; settings: Homo sapiens, mean of three donors
Method: (§1) PBMCs were pelleted (400×g at 4° C. for 5 minutes) and resuspended in RPMI+10% heat-inactivated fetal bovine serum (FBS) at 14.3×10^6 cells/mL; 70 μL (1×10^6 cells) were plated in a 96 well U bottom plate and incubated at 37° C. for 1 hour. […] CD3-biotin and CD28-biotin were prepared together at 10 μg/mL each, which is 10× the final concentration; 10 μL antibodies were added to the cells and incubated at 37° C. for 15 minutes. Avidin was prepared at 500 μg/mL, which is 10× the final concentration; 10 μL avidin were added to the cells and incubated at 37° C. for 5 minutes to induce TCR crosslinking. A total volume of 100 μL cells were transferred to 200 μL warm 2.4% paraformaldehyde (PFA) in deep well blocks. Pipetting was performed using a liquidator 96 to add reagents to the entire plate with uniform timing. Cells were fixed with PFA at 37° C. for 10 minutes. Cells were pelleted (1000× g for 5 minutes), and the plate was aspirated leaving approximately 100 μL residual volume. The plate was then vigorously vortexed for 10 seconds, and 1 mL −20° C. methanol was added to each well. Cells were stored at […] for approximately 1 month. […] Inhibition was measured by construction of a concentration response curve of the Log base 10 transformed values of the molar concentration of inhibitor. […]

S6 phosphorylation = assay: pS6 flow cytometry after CD3/28 crosslinking; assay type: cell-based; settings: Homo sapiens, mean of three donors
Method: as §1

PLCγ1 phosphorylation = assay: Inhibition of PLCγ1 phosphorylation in Jurkat cells; assay type: cell-based, human; settings: anti-CD3
Method: (§2) Jurkat human acute T cell leukemia cell line (ATCC, TIB-152) was cultured in RPMI 1640 medium supplemented with Penicillin-Streptomycin (Gibco) and 10% fetal bovine serum (FBS) at 37° C. and 5% CO2. […] The cell pellet was resuspended in NP40 lysis buffer (Invitrogen) containing protease and phosphatase inhibitors cocktail (Cell Signaling Technology), incubated for 30 minutes on ice, and centrifuged at 15, 000×g for 10 minutes. The lysate supernatant from each condition containing 50 μg of total protein was resolved on an 8% Bis-Tris gel (Invitrogen) under reducing condition and transferred onto a nitrocellulose membrane (Invitrogen) using an iBlot2 gel transfer device. Unless specified otherwise, all reagents described above were purchased from Thermo Fisher Scientific. Membranes were blocked for 1 hour at room temperature and incubated overnight at 4° C. with primary antibodies (1:1000 dilution) in Odyssey blocking buffer (LI-COR) with 0.2% Tween 20. Membranes were washed 4 times (5 min each) in Tris-buffered saline, 0.10% Tween 20 and incubated with IRDye 800CW Anti-Rabbit IgG and IRDye 700CW Anti-Mouse IgG (LI-COR) secondary antibodies (1:20,000 dilution) for 1 hour at room temperature. After washes, membranes were imaged in the LI-COR Odyssey® Fc Imaging System. […]

ZAP-70 phosphorylation = ZAP-70 phosphorylation in Jurkat cells; assay type: cell-based, human; settings: anti-CD3
Method: as §2

ITK [2] = target: T1, ITK; assay: ITK occupancy in patients at steady state; assay type: in vivo
[3] = system: Th1, Th17, CD4+ effector cells, eosinophils; assay: Blood and tumor cell changes in treated lymphoma patients; assay type: in vivo, human
[4] = system: CD4+ T cells, Sézary cells; assay: Cytokine production by CD4+ cells and Sézary cells stimulated with anti-CD3/28/2; assay type: cell-based, human
Description: This is significant because cytokines secreted by Th2 cells are involved in inflammation, allergy and autoimmunity. […] There was no effect on Th1-dependent IFNg, except at high concentrations. Inhibition of Th2 cells blocks production of various inflammatory cytokines, including IL-4, IL-5, IL-9, IL-13, and IL17a.

[5] = system: imiquimod-induced psoriasis; assay: Imiquimod-induced model of psoriasis; settings: in vivo

C=CC(=O)N1CCCN(C(=O)c2cc(Sc3cnc(NC(=O)C4CC4)s3)c(C)cc2OC)C[C@H]1C [CPI-818]
ITK activity after extensive dialysis (ITK [1]): kinase activity was not recovered | ITK activity after extensive dialysis (ITK [1]; listed as CP-818): remained inhibited | remaining activity at 1 µM (Fyn): 99% | IC50 (ERK phosphorylation): 39 nM | IC50 (S6 phosphorylation): 96 nM | phosphorylation of PLCγ1 (PLCγ1 phosphorylation): dose-dependently inhibited | phosphorylation of ZAP-70 (ZAP-70 phosphorylation): but not ZAP-70 | receptor occupancy at 400 mg (ITK [2]; human, 400 mg BID and 600 mg BID, read-out: steady state trough ITK occupancy): ~90% | steady state peak ITK occupancy, mean (ITK [2]; patients, 100-600 mg BID): at least 90% | CD4+ effector cells ([3]; blood and tumor, 200 mg BID): increases | Th17 pro-inflammatory cells ([3]; lymphoma patient): decrease | Th1 cells ([3]; lymphoma patient, blood/tumor): increases | eosinophils ([3]; patient on therapy): decreased while on therapy; also recorded: marked reduction | Interferon gamma (IFNg) production [4]: only inhibited at high concentrations | Th2 cytokine production ([4]; CD4+ T cells): dose-dependent inhibition of Th2 cytokine | dermal inflammation [5]: significantly reduced | skin thickening [5]: significantly reduced

Reference: US20250213587A1, “ITK INHIBITORS FOR INCREASING TH1 CELL ACTIVITY” (Corvus Pharmaceuticals, Inc., priority 2022, published 2025)
